Measured values reported in patent US20250243486A1, “COMPOSITIONS AND METHODS FOR INHIBITING STAG1 EXPRESSION AND USES THEREOF” (PRESIDENT AND FELLOWS OF HARVARD COLLEGE, priority 2022, published 2025).

Tested on: STAG1 Exon 5
Assay: STAG1 Exon 5 inclusion in control or STAG2 KO cells following treatment with H3B-8800
Type: cell-based

H3B-8800
STAG1 Exon 5 skipping (STAG2 KO versus control cells, following treatment of H3B-8800): increased STAG1 Exon 5 skipping | sensitivity of cohesin-mutant AML cells to splicing inhibitor (cohesin mutations, AML cells): highly sensitive
